In US10913781B2, “Pepducin design and use” (Tufts Medical Center, Inc., priority 2011, dated 2021):
Blank lines part the entries; values can stand above or below the compound they belong to. Peptide text beside a SMILES is read from it. * marks the point of attachment. Palmitoyl = CCCCCCCCCCCCCCCC(=O)*

Columns and labels:
[1] = biological target: T1, mast cell tryptase (Mus musculus, UniProt P21845); assay: λ-carrageenan/kaolin-induced mouse paw edema (tryptase inhibitor); assay type: in vivo; settings: C57BL/6 mice; 5 mg/kg s.c.
T1 construct: from tissue; host or cells: C57BL/6 mouse, hind paw in vivo
T1 sequence (P21845 32-276): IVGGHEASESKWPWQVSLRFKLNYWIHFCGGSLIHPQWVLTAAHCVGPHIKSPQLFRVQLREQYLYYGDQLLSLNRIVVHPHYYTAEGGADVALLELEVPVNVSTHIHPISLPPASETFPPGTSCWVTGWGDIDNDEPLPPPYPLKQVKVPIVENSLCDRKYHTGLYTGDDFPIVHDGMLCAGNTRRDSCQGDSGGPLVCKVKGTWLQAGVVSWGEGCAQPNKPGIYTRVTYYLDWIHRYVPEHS
Method: (A) Mast cells were treated with 2 mg/mL of mast cell degranulating agent 48/80 or 2% 1-carrageenan/4% kaolin. […] (B) P2pal-18S inhibits human neutrophil chemotaxis (n=6) to mast cell media. Human neutrophils were incubated with […] P2pal-18S, or […] mast cell tryptase inhibitor APC-366 and allowed to migrate 30 min toward CM from mast cells. (C) C57BL/6 mice (n=5) were pretreated with the tryptase inhibitor APC-366 (5 mg/kg, s.c.) or vehicle (20% DMSO) and then challenged with intraplantar injection of 1-carrageenan/kaolin. (D) Mast cell conditioned media (30 μL of 1-carrageenan/kaolin stimulated media) was injected into the hindpaws of C57BL/6 mice treated with 10 mg/kg P2pal-18S or vehicle (n=5). Data represent mean±SEM. #, P=0.07, *, P<0.05 and **, P<0.005. (E) Mast cell-deficient mice have a significant reduction in 1-carrageenan/kaolin induced paw edema (8 h time point, n=4-6) as compared to littermate controls. Mast-cell deficient mice or littermate controls with intact mast cells were treated with P2pal-18S (10 mg/kg, s.c.) or vehicle and hind paws challenged with 1-carrageenan/kaolin irritant. Error bars represent mean±SEM.
To examine whether mast cells and mast cell tryptase were activating PAR2 in the paw edema model in vivo, mice were depleted of mast cells through pretreatment with compound 48/80 (Carvalho M et al. Eur J Pharmacol (2005), 525: 161-169). […]

[2] = tested on: mast cell tryptase; assay: Human neutrophil chemotaxis toward mast cell conditioned media (tryptase inhibitor); assay type: cell-based; settings: 10 mM APC-366; 30 min
Method: (A) Mast cells were treated with 2 mg/mL of mast cell degranulating agent 48/80 or 2% 1-carrageenan/4% kaolin. […] (B) P2pal-18S inhibits human neutrophil chemotaxis (n=6) to mast cell media. Human neutrophils were incubated with […] P2pal-18S, or […] mast cell tryptase inhibitor APC-366 and allowed to migrate 30 min toward CM from mast cells. (C) C57BL/6 mice (n=5) were pretreated with the tryptase inhibitor APC-366 (5 mg/kg, s.c.) or vehicle (20% DMSO) and then challenged with intraplantar injection of 1-carrageenan/kaolin. (D) Mast cell conditioned media (30 μL of 1-carrageenan/kaolin stimulated media) was injected into the hindpaws of C57BL/6 mice treated with 10 mg/kg P2pal-18S or vehicle (n=5). Data represent mean±SEM. #, P=0.07, *, P<0.05 and **, P<0.005. (E) Mast cell-deficient mice have a significant reduction in 1-carrageenan/kaolin induced paw edema (8 h time point, n=4-6) as compared to littermate controls. Mast-cell deficient mice or littermate controls with intact mast cells were treated with P2pal-18S (10 mg/kg, s.c.) or vehicle and hind paws challenged with 1-carrageenan/kaolin irritant. Error bars represent mean±SEM. […]

[3] = biological target: T2, PAR2 (Homo sapiens, UniProt P55085); assay: SW620 cell migration toward SLIGRL (Boyden chamber, 18 h); assay type: cell-based; set-up: SW620 colon adenocarcinoma cells that endogenously express PAR2; endogenous in cells; host or cells: SW620 (in A7 the SW620 cells were additionally stably transfected with PAR1); settings: 10 μM SLIGRL
Method: (§1) (A) PAR2 antagonist pepducins P2pal-18S and P2pal-14GQ inhibit calcium flux induced by PAR2 (SLIGRL) (SEQ ID NO:4) but not PAR1 (TFLLRN) (SEQ ID NO:2) agonists. SW620 cells were stably transfected with PAR1 and pretreated for 1 min with various concentrations of P2pal-18S or P2pal-14GQ and then stimulated with 30 μM PAR agonist. […] Cells were stimulated with 1 μM TFLLRN (SEQ ID NO:2), 1 μM SLIGRL (SEQ ID NO:4) or 100 μM AYPGKF (SEQ ID NO:5) and [^3H]-InsP formation measured over 30 min. (C) SW620 cells were treated with the indicated concentrations of P2pal-18S or P2pal-14GQ in the upper well of an 8-μm pore Boyden chamber and allowed to migrate for 18 h towards 10 μM of the PAR2 specific agonist SLIGRL in the lower chamber. The migration to RPMI/0.1% FBS represents random migration. (D) Migration of HEK cells transiently transfected with PAR2 (wild-type, WT), or PAR2-R36A/PAR2-RQ toward chemotactic gradients of 30 nM trypsin in the absence or presence of the indicated concentration of P2pal-18S for 18 h in a transwell apparatus ([…]). Data (n=2-4) are mean±SEM. *, P<0.05 and **, P<0.005.
Target sequence in this assay (P55085 26-397): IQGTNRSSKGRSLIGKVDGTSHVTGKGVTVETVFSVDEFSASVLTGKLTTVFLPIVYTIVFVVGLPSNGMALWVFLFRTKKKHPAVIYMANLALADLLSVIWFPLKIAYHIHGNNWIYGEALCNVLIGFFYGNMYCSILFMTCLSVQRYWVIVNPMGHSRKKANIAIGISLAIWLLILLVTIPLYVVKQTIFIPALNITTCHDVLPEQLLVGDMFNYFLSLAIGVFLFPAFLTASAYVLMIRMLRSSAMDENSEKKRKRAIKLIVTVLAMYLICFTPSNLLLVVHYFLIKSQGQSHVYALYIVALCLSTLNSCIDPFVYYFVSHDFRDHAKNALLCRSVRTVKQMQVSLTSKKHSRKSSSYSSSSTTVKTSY

[4] = biological target: T2, PAR2; assay: Calcium flux screen for PAR2 pepducin agonist and antagonist activity in SW620 cells; assay type: cell-based; set-up: SW620 colon adenocarcinoma cells that endogenously express PAR2; endogenous in cells; host or cells: SW620 (in A7 the SW620 cells were additionally stably transfected with PAR1)
Target sequence in this assay (P55085 26-397): as above
Method: (§2) (A) Agonist and antagonist activity of third intracellular (i3) loop PAR2 pepducins (structure shown on top) using calcium flux assays with SW620 colon adenocarcinoma cells that endogenously express PAR2. Each column of three calcium flux traces corresponds to the i3 pepducin sequence shown above. The top row is the agonist activity of 3-4 μM pepducin and the middle row is the agonist activity of 14-15 μM pepducin. […] Final concentration of DMSO vehicle was 0.2%. […] (C) Agonist activity for each pepducin from (A) is reported as initial velocity of calcium flux at 4 μM pepducin (†), or at 14-15 μM pepducin (‡).

[5] = biological target: T3, PAR4 (Homo sapiens, UniProt Q96RI0); assay: [3H]-InsP formation in COS7 cells transfected with PAR4; assay type: cell-based; set-up: expressed in transfected cells; host or cells: COS7; settings: 100 μM AYPGKF, 30 min
T3 sequence (Q96RI0 18-385): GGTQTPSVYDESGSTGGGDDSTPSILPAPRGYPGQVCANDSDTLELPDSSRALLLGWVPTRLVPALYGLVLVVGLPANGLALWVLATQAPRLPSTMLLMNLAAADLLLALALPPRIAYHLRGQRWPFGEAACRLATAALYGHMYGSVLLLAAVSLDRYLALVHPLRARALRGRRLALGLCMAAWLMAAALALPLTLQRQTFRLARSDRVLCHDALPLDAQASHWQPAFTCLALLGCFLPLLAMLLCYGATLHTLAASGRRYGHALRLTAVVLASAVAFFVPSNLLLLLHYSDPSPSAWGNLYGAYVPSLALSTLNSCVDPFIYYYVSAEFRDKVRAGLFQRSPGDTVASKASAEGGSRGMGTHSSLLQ
Method: as §1

[6] = biological target: T4, PAR1 (Homo sapiens, UniProt P25116); assay: [3H]-InsP formation in COS7 cells transfected with PAR1; assay type: cell-based; set-up: expressed in transfected cells; host or cells: COS7; settings: 1 μM TFLLRN, 30 min
T4 sequence (P25116 22-425): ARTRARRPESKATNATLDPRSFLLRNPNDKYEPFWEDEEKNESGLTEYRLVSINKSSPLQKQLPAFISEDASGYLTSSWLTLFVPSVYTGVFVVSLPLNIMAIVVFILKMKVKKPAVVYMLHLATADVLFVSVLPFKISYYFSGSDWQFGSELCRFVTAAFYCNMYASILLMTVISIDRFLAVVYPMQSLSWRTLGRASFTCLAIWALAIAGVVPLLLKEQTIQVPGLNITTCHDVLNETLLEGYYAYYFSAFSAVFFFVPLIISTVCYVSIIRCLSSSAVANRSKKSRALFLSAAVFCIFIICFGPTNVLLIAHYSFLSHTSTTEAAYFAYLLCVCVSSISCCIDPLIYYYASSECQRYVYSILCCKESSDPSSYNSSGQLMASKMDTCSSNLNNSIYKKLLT
Method: as §1

[7] = biological target: T4, PAR1; assay: Calcium flux in SW620 cells stably transfected with PAR1, TFLLRN stimulus; assay type: cell-based; settings: 30 μM TFLLRN
Method: as §1

[8] = biological target: T2, PAR2; assay: Agonist | (%)^†; set-up: SW620 colon adenocarcinoma cells that endogenously express PAR2; endogenous in cells; host or cells: SW620 (in A7 the SW620 cells were additionally stably transfected with PAR1); settings: 4 µM
Target sequence in this assay (P55085 26-397 limits assumed): as the sequence (P55085 26-397) above
Method: as §2

[9] = biological target: T2, PAR2; assay: Agonist | (%)^‡; set-up: SW620 colon adenocarcinoma cells that endogenously express PAR2; endogenous in cells; host or cells: SW620 (in A7 the SW620 cells were additionally stably transfected with PAR1)
Target sequence in this assay (P55085 26-397 limits assumed): as the sequence (P55085 26-397) above

[10] = biological target: T4, PAR1; assay: Lung cancer cell line migration toward NIH-3T3 conditioned media (Boyden chamber); assay type: cell-based; set-up: endogenous in cells; host or cells: A549, HOP62, H1299, H522, H226, HOP92 lung carcinoma lines; settings: A549, HOP62, H1299; pepducins in lower well
Source text: FIG. 11 illustrates PAR expression profile in lung cancer. Lung cancer cell lines (n=7) from the NCI-60 panel were characterized for surface expression of PAR1, PAR2, PAR3, and PAR4 (A) as previously described in Nguyen et al., 2006. (B): PAR mRNA expression profile in patient samples. Quantitative real-time PCR analysis of PAR1 to PAR4 (corrected for actin expression as internal control) and expressed as fold increase over nonmalignant lung tissue. Migration of lung carcinoma cell lines toward fibroblast conditioned media is expressed as cell number ±SD. (C): Silencing of PAR1 expression in A549 and HOP62 cells with shPAR1 or vector control. Surface expression of PAR1 was determined by flow cytometry using SFLLR-Ab. (D): Migration of A549 and HOP62 lung cancer cells toward NIH-3T3 conditioned media supplemented with RWJ-56110 (10 μmol/L) and SCH7979 (50 μmol/L) or vehicle (0.2% dimethyl sulfoxide). Migration of lung cancer cells treated with shPAR1 treatment or appropriate controls toward NIH-3T3 conditioned media. Basal migration toward conditioned media (vehicle treated or vector control) was normalized to 100%. *P<0.05, **P<0.01.
FIG. 12 illustrates that PAR1 is a promigratory factor in lung cancer cells. […] (G): Cell from primary lung tumors or nonmalignant control were pretreated with PAR1 pepducins and migration was determined (*P<0.05, **P<0.01). […]

Protection in λ-carrageenan/kaolin-induced paw edema [1]: 40%
Compound: NC(=O)[C@@H]1CCCN1C(=O)[C@H](CCCN=C(N)N)NC(=O)c1ccc2ccccc2c1O [APC-366]
Inhibition of chemotactic migration toward tryptase-containing mast cell media [2]: completely inhibited

Antagonist activity (inhibition of SLIGRL calcium flux, area under the curve) ([4]; 6 μM pepducin, 1 min pretreatment, against 100 μM SLIGRL): 53%
Inhibition of InsP signaling from PAR4 [5]: do not inhibit
Inhibition of InsP signaling from PAR1 [6]: do not inhibit
Inhibition of PAR1 calcium flux [7]: selective for PAR2 and not PAR1
Agonist | (%)^† [8]: 3%
Agonist | (%)^‡ [9]: 2%
Compound: CCCCCCCCCCCCCCCC(=O)NCC(=O)N[C@@H](CC(=O)O)C(=O)N[C@@H](CCC(=O)O)C(=O)N[C@@H](CC(N)=O)C(=O)N[C@@H](CO)C(=O)N[C@@H](CCC(=O)O)C(=O)N[C@@H](CCCCN)C(=O)N[C@@H](CCCCN)C(=O)N[C@@H](CCCNC(=N)N)C(=O)N[C@@H](CCCCN)C(=O)N[C@@H](CCC(N)=O)C(=O)N[C@@H](C)C(=O)N[C@H](C(=O)N[C@@H](CCCCN)C(N)=O)[C@@H](C)CC [P2pal-14GQ] (Palmitoyl-GDENSEKKRKQAIK-NH2)
Suppression of SW620 migration to SLIGRL [3]: not as efficacious in suppressing migration of SW620 cells to SLIGRL as compared to P2pal-18S
Agonist activity (calcium flux) ([4]; 3-4 μM and 14-15 μM pepducin): agonist activity remained insignificant or insubstantial

Suppression of migration of PAR1-expressing adenocarcinomas [10]: no effect on migration
Compound: P1pal-19EE: negative control PAR1 i3 pepducin, 19 residues, S309 to E and A311 to E; SEQ ID NO:27 (Palmitoyl-ECESSSAEANRSKKERELF-NH2)
